# From ChEMBL document CHEMBL5303573, “Mapping human microbiome drug metabolism by gut bacteria and their genes” (Nature, 2019)
# Assays:
# Type in all cases: ADME
# Set-up in all cases: dose 2 uM
# Details in all cases: 2 µM
# [1] = target: T1, Acyltransferase 3 domain-containing protein (Phocaeicola dorei, UniProt B6W2J3); assay: (§1) The drug is tested on Bacteroides dorei strain: DSM17855 for biotransformation. The drug concentrations were measured before and after a 12-h incubation by liquid-chromatography-coupled mass spectrometry (LC–MS)
# T1 sequence (B6W2J3 whole entry): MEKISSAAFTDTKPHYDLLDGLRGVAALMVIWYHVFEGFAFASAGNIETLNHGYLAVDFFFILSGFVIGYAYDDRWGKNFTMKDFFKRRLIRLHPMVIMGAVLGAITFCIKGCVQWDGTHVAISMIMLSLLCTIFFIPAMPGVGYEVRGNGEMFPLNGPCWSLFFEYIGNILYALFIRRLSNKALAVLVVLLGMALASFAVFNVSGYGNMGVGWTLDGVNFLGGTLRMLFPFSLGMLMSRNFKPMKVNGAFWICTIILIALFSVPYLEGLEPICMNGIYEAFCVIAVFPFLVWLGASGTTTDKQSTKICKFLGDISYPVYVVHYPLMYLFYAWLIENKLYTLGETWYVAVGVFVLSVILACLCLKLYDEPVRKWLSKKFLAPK
# [2] = target: T2, Steroid 5-alpha reductase C-terminal domain-containing protein (Phocaeicola dorei, UniProt B6W0N3); assay: as §1
# T2 sequence (B6W0N3 whole entry): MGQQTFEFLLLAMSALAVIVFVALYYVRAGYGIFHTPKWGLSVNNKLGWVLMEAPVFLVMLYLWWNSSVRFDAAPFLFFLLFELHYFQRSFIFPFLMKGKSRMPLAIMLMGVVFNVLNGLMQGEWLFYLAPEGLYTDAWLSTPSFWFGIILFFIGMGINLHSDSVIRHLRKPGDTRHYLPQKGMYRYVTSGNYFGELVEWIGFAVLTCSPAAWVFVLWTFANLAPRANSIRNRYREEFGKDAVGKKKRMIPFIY
# [3] = target: T3, Nitroreductase (Bacteroides thetaiotaomicron, UniProt Q8A911); assay: (§2) The drug is tested on Bacteroides thetaiotaomicron strain: VPI-5482 for biotransformation. The drug concentrations were measured before and after a 12-h incubation by liquid-chromatography-coupled mass spectrometry (LC–MS)
# T3 sequence (Q8A911 whole entry): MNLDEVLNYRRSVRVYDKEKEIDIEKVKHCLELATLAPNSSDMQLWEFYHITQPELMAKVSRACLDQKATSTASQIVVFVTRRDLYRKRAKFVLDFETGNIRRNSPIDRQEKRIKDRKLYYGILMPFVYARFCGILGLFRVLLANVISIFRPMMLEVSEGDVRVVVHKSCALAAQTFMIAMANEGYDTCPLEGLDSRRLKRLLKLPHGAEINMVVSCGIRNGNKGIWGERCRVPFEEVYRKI
# [4] = target: T4, Lipolytic enzyme, G-D-S-L family (Bacteroides thetaiotaomicron, UniProt Q8A0E6); assay: as §2
# T4 sequence (Q8A0E6 whole entry): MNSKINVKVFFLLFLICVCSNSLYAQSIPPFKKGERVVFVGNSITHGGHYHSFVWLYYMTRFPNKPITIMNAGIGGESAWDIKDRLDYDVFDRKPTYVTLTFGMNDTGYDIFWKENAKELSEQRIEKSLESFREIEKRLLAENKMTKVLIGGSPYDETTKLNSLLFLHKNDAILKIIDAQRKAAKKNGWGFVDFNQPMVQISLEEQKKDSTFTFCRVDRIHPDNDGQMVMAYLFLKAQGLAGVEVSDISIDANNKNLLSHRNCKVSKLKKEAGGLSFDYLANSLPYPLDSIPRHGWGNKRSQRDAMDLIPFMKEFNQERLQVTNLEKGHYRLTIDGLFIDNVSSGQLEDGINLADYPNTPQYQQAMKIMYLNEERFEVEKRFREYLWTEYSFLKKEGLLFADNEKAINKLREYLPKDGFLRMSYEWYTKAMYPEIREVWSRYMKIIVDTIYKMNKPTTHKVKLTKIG
# [5] = target: T5, Acetyl esterase (Acetylxylosidase) (Bacteroides thetaiotaomicron, UniProt Q8ABF8); assay: as §2
# T5 sequence (Q8ABF8 whole entry): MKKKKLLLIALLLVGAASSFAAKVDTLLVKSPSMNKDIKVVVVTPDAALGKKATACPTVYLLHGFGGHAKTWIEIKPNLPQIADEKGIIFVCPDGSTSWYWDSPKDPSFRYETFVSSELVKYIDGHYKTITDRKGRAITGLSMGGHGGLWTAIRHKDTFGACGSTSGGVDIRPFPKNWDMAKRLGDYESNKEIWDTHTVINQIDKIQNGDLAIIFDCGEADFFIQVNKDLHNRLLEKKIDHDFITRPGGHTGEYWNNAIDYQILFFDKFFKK
# [6] = target: T6, Regulatory protein (Bacteroides thetaiotaomicron, UniProt Q8A576); assay: as §2
# T6 sequence (Q8A576 whole entry): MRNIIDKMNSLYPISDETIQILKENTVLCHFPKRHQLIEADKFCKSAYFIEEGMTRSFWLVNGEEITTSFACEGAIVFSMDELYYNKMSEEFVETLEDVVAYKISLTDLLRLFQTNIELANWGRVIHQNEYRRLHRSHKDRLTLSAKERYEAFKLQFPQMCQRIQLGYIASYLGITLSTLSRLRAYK
# [7] = target: T7, Nitroreductase-like protein (Bacteroides thetaiotaomicron, UniProt Q8AB93); assay: as §2
# T7 sequence (Q8AB93 whole entry): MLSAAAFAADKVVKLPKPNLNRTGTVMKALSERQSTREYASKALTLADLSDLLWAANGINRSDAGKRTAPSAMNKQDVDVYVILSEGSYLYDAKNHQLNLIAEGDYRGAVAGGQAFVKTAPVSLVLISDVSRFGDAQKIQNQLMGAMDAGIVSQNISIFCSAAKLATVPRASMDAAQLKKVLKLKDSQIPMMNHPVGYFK
# [8] = target: T8, NADH dehydrogenase/NAD(P)H nitroreductase (Bacteroides thetaiotaomicron, UniProt Q8A8L9); assay: as §2
# T8 sequence (Q8A8L9 whole entry): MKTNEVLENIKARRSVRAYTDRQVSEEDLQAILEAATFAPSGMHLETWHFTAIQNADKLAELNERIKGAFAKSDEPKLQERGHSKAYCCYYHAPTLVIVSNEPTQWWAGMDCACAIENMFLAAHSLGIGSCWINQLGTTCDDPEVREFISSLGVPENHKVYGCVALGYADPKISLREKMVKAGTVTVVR
# [9] = target: T9, SGNH hydrolase-type esterase domain-containing protein (Phocaeicola dorei, UniProt B6W293); assay: as §1
# T9 sequence (B6W293 whole entry): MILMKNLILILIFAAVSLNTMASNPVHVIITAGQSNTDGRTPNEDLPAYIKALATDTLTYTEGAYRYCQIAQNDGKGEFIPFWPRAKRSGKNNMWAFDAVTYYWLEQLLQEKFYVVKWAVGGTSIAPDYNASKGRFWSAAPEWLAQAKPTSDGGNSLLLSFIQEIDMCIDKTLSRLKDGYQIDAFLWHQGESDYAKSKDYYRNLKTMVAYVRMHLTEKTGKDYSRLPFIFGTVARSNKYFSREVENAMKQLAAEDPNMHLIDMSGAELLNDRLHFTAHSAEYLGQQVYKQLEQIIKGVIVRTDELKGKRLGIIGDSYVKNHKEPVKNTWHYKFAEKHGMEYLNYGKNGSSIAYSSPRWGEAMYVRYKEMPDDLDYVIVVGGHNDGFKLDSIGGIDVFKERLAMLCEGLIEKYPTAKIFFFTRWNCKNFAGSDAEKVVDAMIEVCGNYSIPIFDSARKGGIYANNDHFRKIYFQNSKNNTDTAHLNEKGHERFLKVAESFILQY
Compound,Bacterial Biotransformation [1],Bacterial Biotransformation [2],Bacterial Biotransformation [3],Bacterial Biotransformation [4],Bacterial Biotransformation [5],Bacterial Biotransformation [6],Bacterial Biotransformation [7],Bacterial Biotransformation [8],Bacterial Biotransformation [9]
CC(=O)OCC(=O)[C@@]12N=C(C)O[C@@H]1C[C@H]1[C@@H]3CCC4=CC(=O)C=C[C@]4(C)[C@H]3[C@@H](O)C[C@@]12C [DEFLAZACORT],Compound NOT metabolized,Compound NOT metabolized,Compound NOT metabolized,Compound NOT metabolized,Compound NOT metabolized,Compound NOT metabolized,Compound NOT metabolized,Compound NOT metabolized,
CC(=O)Oc1ccc(C(c2ccc(OC(C)=O)cc2)c2ccccn2)cc1 [BISACODYL],Compound NOT metabolized,Compound NOT metabolized,Compound NOT metabolized,Compound NOT metabolized,Compound metabolized,Compound NOT metabolized,Compound NOT metabolized,Compound NOT metabolized,Compound metabolized
CCOC(=O)C1=C(C)NC(C)=C(C(=O)OC)C1c1cccc([N+](=O)[O-])c1 (stereo not given) [NITRENDIPINE],Compound NOT metabolized,Compound NOT metabolized,Compound NOT metabolized,Compound NOT metabolized,Compound NOT metabolized,Compound NOT metabolized,Compound metabolized,,Compound NOT metabolized
COc1ccnc(C[S+]([O-])c2nc3ccc(OC(F)F)cc3[nH]2)c1OC (stereo not given) [PANTOPRAZOLE],Compound NOT metabolized,Compound NOT metabolized,Compound NOT metabolized,Compound NOT metabolized,Compound NOT metabolized,Compound NOT metabolized,Compound NOT metabolized,Compound NOT metabolized,Compound metabolized
C#C[C@]1(O)CC[C@H]2[C@@H]3CCC4=Cc5oncc5C[C@]4(C)[C@H]3CC[C@@]21C [DANAZOL],Compound NOT metabolized,Compound NOT metabolized,Compound NOT metabolized,Compound NOT metabolized,Compound NOT metabolized,Compound NOT metabolized,Compound NOT metabolized,Compound NOT metabolized,Compound NOT metabolized
CC(=O)SCC(Cc1ccccc1)C(=O)NCC(=O)OCc1ccccc1 (stereo not given) [RACECADOTRIL],Compound NOT metabolized,Compound NOT metabolized,Compound NOT metabolized,Compound NOT metabolized,Compound metabolized,Compound NOT metabolized,Compound NOT metabolized,Compound NOT metabolized,Compound NOT metabolized
O=C(O)c1cc(/N=N/c2ccc(S(=O)(=O)Nc3ccccn3)cc2)ccc1O [SULFASALAZINE],Compound NOT metabolized,Compound NOT metabolized,Compound NOT metabolized,Compound NOT metabolized,,Compound NOT metabolized,Compound metabolized,Compound NOT metabolized,Compound NOT metabolized
CC(=O)Nc1ccc(OC(C)=O)cc1 [DIACETAMATE],Compound NOT metabolized,Compound NOT metabolized,Compound NOT metabolized,Compound NOT metabolized,Compound metabolized,Compound metabolized,Compound NOT metabolized,Compound NOT metabolized,Compound metabolized
CCN(CC)C(=O)/C(C#N)=C/c1cc(O)c(O)c([N+](=O)[O-])c1 [ENTACAPONE],Compound NOT metabolized,Compound NOT metabolized,Compound NOT metabolized,Compound NOT metabolized,Compound NOT metabolized,Compound NOT metabolized,Compound metabolized,Compound metabolized,Compound NOT metabolized
CCS(=O)(=O)CCn1c([N+](=O)[O-])cnc1C [TINIDAZOLE],Compound NOT metabolized,Compound NOT metabolized,Compound metabolized,Compound NOT metabolized,Compound NOT metabolized,Compound NOT metabolized,Compound metabolized,Compound metabolized,Compound NOT metabolized
CC(=O)OCC(=O)NCCCOc1cccc(CN2CCCCC2)c1 [ROXATIDINE ACETATE],Compound NOT metabolized,Compound NOT metabolized,Compound NOT metabolized,,Compound metabolized,Compound metabolized,Compound NOT metabolized,Compound NOT metabolized,Compound NOT metabolized
